Article PMC4666032, “KPT-330, a potent and selective exportin-1 (XPO-1) inhibitor, shows antitumor effects modulating the expression of cyclin D1 and survivin in prostate cancer models” (BMC Cancer, 2015)

Tests used:
[1] = tested on: DU145 xenografts; experiment: DU145 xenograft in male nude mice; format: in vivo; conditions: PO Mon/Wed/Fri, vs vehicle
Text: (§1) Male CD1 nude mice (Charles River, Milan, Italy) were maintained under the guidelines established by the University of L’Aquila, Medical School and Science and Technology School Board Regulations. Experiments on animals have been approved by your local IRB in compliance with the Italian government regulation n.116 January 27, 1992 for the use of laboratory animals which is line with ARRIVE guidelines. All mice received subcutaneous flank injections of 1 x 10^6 PC3, DU145 or 22v1 cells. Tumor growth was measured bi-weekly with a Vernier caliper (length x width). Tumor weight was calculated according to the formula: TW (mg) = tumor volume (mm^3) = d2 x D/2, where d and D are the shortest and longest diameters, respectively. The effects of the treatments were examined as previously described. […]
Mice were treated by oral gavage with either vehicle control (Pluronic F-68/PVP-K29/32), KPT330 or KPT251. […] In vivo, combinational studies were evaluated by CalcuSyn (Biosoft). For the calculation of CI, the values of cell kill for a fixed tumor volume were considered (determined by the log cell kill (LCK)). LCK was determined as LCKZ (TKC)/(3.3KTd), where Td represents the mean control group doubling time required to reach a fixed tumor volume, expressed in days, whereas T and C are the same values as described above. […]

[2] = tested on: PC3 xenografts; experiment: PC3 xenograft in male nude mice; format: in vivo; conditions: for apoptosis in tumors (TUNEL staining) / cell proliferation in tumors (Ki-67 staining): KPT-251 100 mg/kg or KPT-330 10 mg/kg, sectioned tumors, PC3 xenografts (Fig. 7); for tumor weight: PC3 xenografts, PO Mon/Wed/Fri, vs vehicle
Text: Male CD1 nude mice (Charles River, Milan, Italy) were maintained under the guidelines established by the University of L’Aquila, Medical School and Science and Technology School Board Regulations. Experiments on animals have been approved by your local IRB in compliance with the Italian government regulation n.116 January 27, 1992 for the use of laboratory animals which is line with ARRIVE guidelines. All mice received subcutaneous flank injections of 1 x 10^6 PC3, DU145 or 22v1 cells. Tumor growth was measured bi-weekly with a Vernier caliper (length x width). Tumor weight was calculated according to the formula: TW (mg) = tumor volume (mm^3) = d2 x D/2, where d and D are the shortest and longest diameters, respectively. The effects of the treatments were examined as previously described. Animals were sacrificed by carbon dioxide inhalation and tumors were subsequently removed surgically. A piece of tumor was frozen in liquid nitrogen for protein analysis and another piece was fixed in paraformaldehyde overnight for immunohistochemical analyses.
Mice were treated by oral gavage with either vehicle control (Pluronic F-68/PVP-K29/32), KPT330 or KPT251. Before tumor injection, animals were randomized into seven treatment groups as follows: Group 1: mice (10 animals) receiving 100 μl vehicle PO; Group 2: mice (10 animals) receiving 100 mg/kg KPT-251 every two days (Monday and Friday)/week PO; Group 3: mice (10 animals) receiving 30 mg/kg KPT-251 every two day/week PO; Group 4: mice (10 animals) receiving 10 mg/kg/day PO; Group 5: mice (10 animals) receiving 30 mg/kg KPT-330 every two days/week PO; Group 6: mice (10 animals) receiving 10 mg/kg KPT-330 every two days/week PO; Group 7: mice (10 animals) receiving 3 mg/kg/day KPT-330 PO. Treatments were started when tumor volumes reached approximately 80 mm^3 (Day 0) and were stopped after 28 days. The following parameters were used to quantify the antitumor effects upon different treatments: (1) tumor volume measured during and at the end of experiments, (2) tumor weight measured at the end of experiment, (3) complete response (CR) defined as the disappearance of the target lesion with respect to baseline, (4) partial response (PR) defined as a reduction of greater than 50 % of tumor volume with respect to baseline, (5) stable disease (SD) defined as a reduction of less than 50 % or an increase of less than 100 % of tumor volume with respect to baseline, (6) tumor progression (TP) defined as an increase of greater than […] of tumor volume with respect to baseline, (7) time to progression (TTP). In vivo, combinational studies were evaluated by CalcuSyn (Biosoft). For the calculation of CI, the values of cell kill for a fixed tumor volume were considered (determined by the log cell kill (LCK)). LCK was determined as LCKZ (TKC)/(3.3KTd), where Td represents the mean control group doubling time required to reach a fixed tumor volume, expressed in days, whereas T and C are the same values as described above.
To determine the effects of XPO-1 inhibition on prostate cancer growth in vivo, we used […] aggressive CRPC, PC3, DU145 and 22rv1, cell lines engrafted in male nude mice. Once tumors were established (80–100 mm3 in size), mice were divided into seven different groups (10 mice/group) and treated with varying doses of KPT-251 (10, 30, 100 mg/kg PO QoDx3) and KPT-330 (5, 10, 20 mg/kg PO QoDx3). Tumors were measured for 35 days. The effects of KPT-251 on tumor growth is shown in Fig. 5 and KPT-330 in Fig. 6. The mean tumor weight was calculated for each treatment group. […]

[3] = tested on: models of aggressive PCa; experiment: In vivo models of aggressive PCa (xenograft not specified); set-up: species or system mice
Text: as §1
Mice were treated by oral gavage with either vehicle control (Pluronic F-68/PVP-K29/32), KPT330 or KPT251. […] In vivo, combinational studies were evaluated by CalcuSyn (Biosoft). For the calculation of CI, the values of cell kill for a fixed tumor volume were considered (determined by the log cell kill (LCK)). LCK was determined as LCKZ (TKC)/(3.3KTd), where Td represents the mean control group doubling time required to reach a fixed tumor volume, expressed in days, whereas T and C are the same values as described above.

[4] = tested on: PC3 cells; experiment: Western blot of nuclear proteins; format: cell-based, human; conditions: 100 nM, 2-12 hrs
Procedure: (§2) Cytoplasmic and nuclear protein extracts were obtained by using the Nuclear/Cytosol Fractionation Kit from Biovision Inc. (Milpitas, CA, USA). Cell extracts and conditioned media from treated and untreated cells were electrophoresed under reducing conditions and transferred to nitrocellulose filter (Schleicher and Schuell GmbH, Dassel, Germany). Non specific binding sites were blocked for 1 h in 5 % non-fat dried milk in a Tris buffer containing 20 mM Tris and 137 mM NaCl (pH 7.6). Blots were incubated with 1 μg/ml of primary antibody diluted in blocking solution for 1 h at room temperature, washed and then incubated for 1 h in secondary antibody diluted 1:3000 in blocking solution. Following an additional wash, reactive bands were visualized by a chemiluminescent detection kit (Supersignal, Perbio Science, Tattenhall, UK) using Bio-Rad gel Doc™ (Bio-Rad Laboratories S.r.l., Milan, Italy).
(§3) The molecular pathways that are induced by XPO-1 inhibition were evaluated by immunoblots, ELISA and immunocytochemical analyses performed in PC3, DU145 and 22rv1 as models of CRPC using 100 nM KPT-330 as reference compound. The effects were monitored in early and chronic treatments. […] In Fig. 3a, we show representative western blots for nuclear and cytoplasm expression of cyclin D1 and XPO-1 in PC3 cell extracts after 2–12 hr of treatment with KPT-330. […] In addition, prolonged treatment with KPT-330 determined a reduction of cyclin D1 protein expression in DU145 cell lines (Fig. 3c). Increased nuclear expression of FOXO3a is visible also by IHC (Fig. 3e) in 22rv1 cells treated with KPT-330. […] Therefore, the inhibition of XPO-1-mediated export machinery may enhance AR signaling (manuscript in preparation). […] Although proteasome inhibitors are considered for treatment of solid tumors, these compounds could reduce the effectiveness of selinexor, requiring further investigation.

[5] = tested on: 22rv1 cells; experiment: Western blot of nuclear proteins; format: cell-based, human; conditions: 100 nM
Procedure: as §2, §3

[6] = tested on: PC3, DU145 and 22rv1; experiment: Molecular changes by immunoblots, ELISA and immunocytochemistry; format: cell-based, human
Procedure: as §2, §3

Row | SMILES | tumor weight [1] | apoptosis in tumors (TUNEL staining) [2] | cell proliferation in tumors (Ki-67 staining) [2] | tumor weight [2] | antitumor effects compared to KPT-251 ([3]; at similar dosage) | tumor volume relative to docetaxel-treated animals ([3]; internal control docetaxel, data not shown) | nuclear FOXO, p21, p27, cyclin B1 [4] | total expression of AR, prolonged exposure ([5]; 22rv1 cells, prolonged exposure) | nuclear expression of p53 and MDM2 ([5]; AR+/p53wt 22rv1 cells) | nuclear expression of AR ([5]; AR+/p53wt 22rv1 cells, early) | cell cycle distribution ([6]; 100 nM, 24, 48 and 72 hrs) | XPO-1 localization, early treatment ([6]; 100 nM, early treatment) | cyclin D1 cytosolic levels ([6]; 100 nM, early treatment) | cyclin D1 nuclear expression ([6]; 100 nM, early treatment) | XPO-1 protein levels, prolonged treatment ([6]; 100 nM, prolonged treatments) | nuclear export of survivin ([6]; PCa cell lines, Western blots and ELISAs, 100 nM)
1 | FC(F)(F)c1cc(-c2ncn(/C=C\c3nnco3)n2)cc(C(F)(F)F)c1 [KPT-251] | reduce tumor weight in a dose-dependent manner | increased apoptosis | decreased cell proliferation | reduce tumor weight in a dose-dependent manner |  |  |  |  |  |  |  |  |  |  |  | 
2 | O=C(/C=C\n1cnc(-c2cc(C(F)(F)F)cc(C(F)(F)F)c2)n1)NNc1cnccn1 [KPT-330] | reduce tumor weight in a dose-dependent manner | increased apoptosis | decreased cell proliferation | reduce tumor weight in a dose-dependent manner | better antitumor effects | approximately one-third | nuclear accumulation | significantly reduced | increased | increased | accumulation of cells in the G1 cell cycle phase with loss of cells in the S and G2/M phase | early XPO-1 nuclear accumulation | strongly reduced | increased | dramatically reduced | reduced
